The data set concerns rat liver microsomes. As to the kind of experiment: In vitro metabolic stability, rat liver microsomes. It counts as in vitro ADME. The following applies: 2 μM, % remaining after 30 minutes at 37° C. As to the method:
The comparative in vitro metabolic stabilities of Compounds (1F), […], and W-212393 were determined upon exposure to human liver microsomes or rat liver microsomes according to a procedure disclosed in, e.g., Example 14 of U.S. Pat. No. 9,290,488, which is hereby incorporated by reference in its entirety. Liver microsomes from Crj;CD rats or humans were incubated with 2 μM of each tested compound; thereafter, the supernatant was analyzed by HPLC-MS for the concentration of the tested compound present. Human liver microsomes, pooled, 20 mg/mL, were obtained from […] #H0610). […] Alternatively and if desired, rat liver microsomes can be obtained commercially from, e.g., XenoTech (Sprague-Dawley rat liver microsomes, pooled, 20 mg/mL, cat #R1000). β-NADPH (β-nicotinamide adenine dinucleotide 2'-phosphate reduced tetrasodium salt hydrate) was obtained from Oriental Yeast Co., Ltd. (Tokyo, Japan). Each tested compound, present at an initial concentration of 2 μM, was incubated at 37° C. in the presence of 0.5 mg/mL of either human microsomes or rat microsomes in suspension in 50 mM Tris-HCl buffer (7.4 pH), 150 mM KCl, 10 mM MgCl2, and 1 mM β-NADPH. Incubation was initiated upon the addition of a 100-fold concentrated solution of the tested compound to one of the microsome preparations. Incubation was terminated by addition of a two-fold volume of a 1/1 mixture of acetonitrile/methanol after either 0 minutes or 30 minutes of incubation at 37° C. Thereafter, proteins and other macromolecules from the microsome preparation were removed by centrifugation. All incubations were conducted in duplicate. […] The HPLC system consisted of a Waters 2795 separations module (Waters Corp., Milford, Mass.) equipped with an inline degasser, temperature controlled auto-sampler, and column oven. The analytical column was a Waters […], 2.1 mm×20 mm column. The mass analyzer was a Waters ZQ, single quadrupole mass spectrometer equipped with an electrospray ionization source operating in the positive ionization mode and utilizing a stainless steel spray capillary. […]
(In general: Liver microsomes are a subcellular fraction often used to study metabolism.)

Data on one compound can be found in patent publication US10974081B2, “Treatment and prevention of sleep disorders” (Purdue Pharma L.P., priority 2016, dated 2021).

As to `CNC(=O)Cn1c(=O)n(C2CCN([C@@H]3Cc4cccc5cccc3c45)CC2)c2ccccc21` [Compound W-212393], the “Rat Metabolic Stability (%)” value came to 58.4%.
